The subject of data set [1] is intracellular reduced glutathione (GSH) in NRCs. The data set can be described thus: Intracellular reduced glutathione (GSH) in NRCs after ischemia and 10 min of reperfusion. As to conditions: 30 μM, 10 min after the onset of reperfusion. The data set is classed as cell-based, rat. The procedure: FIG. 9. Regulation of oxygen availability and the intracellular reduced glutathione content by Re-CORMs. A: Reduction in oxygen content in the incubation medium within 10 min after addition of 60 μM of 2, 6 and B12-CORM-2; N=6-8. Given are means±SEM. B: Intracellular reduced glutathione (GSH) content in NRCs exposed to 16 h of ischemia and 10 min of reperfusion in the presence or absence of CO-RMs. N=4 Data are means±SEM.
Oxidative stress triggered by acute hyperoxygenation is a hallmark of reperfusion injury. Based on the findings presented in FIG. 9A selected CORMs may be viewed as oxygen scavengers which, when applied early on during reperfusion, may reduce the cellular oxidative damage. To test this hypothesis intracellular reduced glutathione (GSH) levels were determined in cells 10 min after the “onset of reperfusion” in the presence or absence of 30 μM 2, 6 and B12-CORM-2. […] (FIG. 9B). This acute antioxidative effect of 2 most likely reflects the ability of the intermediates formed upon CO release to react with oxygen forming ReO4^−.

The nature of data set [2]: Deoxygenation of cell-free incubation medium. Particulars: within minutes after administration, dose-dependent (FIG. 9A: 60 μM, 10 min).
Description: Therefore, the effect of the three selected CO-RMs on oxygen consumption by NRCs was investigated.
The nature of data set [3]: Solubility in water and organic solvents. Format: physicochemical.
The subject of data set [4] is neonatal rat ventricular cardiomyocytes (NRCs). As to conditions: Zobi et al., Inorg. Chem. 2010, 49, 7313-7322; cited from earlier work.
Data set [5] concerns horse skeletal myoglobin (Mb). The experiment in a line: Detection of CO release using the myoglobin assay (conversion of Mb to MbCO). Particulars: pH 7.4, 25° C. Format: biochemical.
Protocol: Changes in the Mb spectra were recorded over time at 25° C. The methanol or DMSO content of the solution never exceeded 0.5%. […] The MbCO concentration was plotted over time and directly related to the equivalents of CO released from the compounds. The half-life of CO release from the Re compounds at different pH's was then estimated from the graphs. Control experiments were run under identical conditions but without addition of the metal complexes. All manipulations were performed under a pure N2 atmosphere in a wet box.
The final methanol or DMSO content of the buffered aqueous solution never exceeded 0.5%. The conversion of Mb to carbon monoxide myoglobin (MbCO) was followed over time by measuring the changes in the absorption spectra of the Q band region of this protein at pH 7.4, 6.3 and 5.8 after addition of the Re^II complex.
The amount of MbCO formed over time after addition of the Re complex to the Mb solution was calculated according to the known extinction coefficients. The MbCO concentration was directly related to the equivalents of CO released from the compounds and these were plotted as a function of time.
Data set [6] concerns neonatal rat cardiomyocyte (NRC). The data set can be described thus: Cytotoxicity towards neonatal rat cardiomyocytes under normal conditions. The data set is classed as cell-based. Particulars: normal physiological conditions, up to a tested concentration of 120 μM. The procedure: B12-CORM-2 and 4 (Scheme 3) were tested for their cytotoxic and their cytoprotective effects using the neonatal rat cardiomyocyte (NRC) cell-based model of ischemia-reperfusion injury (I/R) as previously described (Zobi et al., Inorg. Chem. 2010, 49, 7313-7322). The membrane-impermeable ReII-CORMs studied so far were non-toxic in the micromolar concentration range. To test for the possible uptake of B12-CO-RMs by cells incubation of NRCs with 30 μM of B12-CORM-2 and 4 was performed and cell culture medium samples were collected over 180 min of incubation. […] The fraction of dead cells tended to decrease in the presence of CORMs, but, due to the high variability, the differences were not statistically significant (2.7±1.7% in control vs 1.1±0.3 and 1.0±0.2 in the presence of B12-CORM-2 and B12-CORM-4 respectively).

The nature of data set [7]: Stability under aerobic conditions (solid, solution). The data set is classed as physicochemical.

As to `CC[N+](CC)(CC)CC.CC[N+](CC)(CC)CC.[Br][Re-2]([Br])([Br])[Br].[C-]#[O+].[C-]#[O+]` [Compound 2, [Et4N]2[Re^IIBr4(CO)2]], in data set [1], the “intracellular reduced glutathione (GSH) levels” value was “increase”. In data set [2], the “deoxygenation of the cell-free medium” value is reported as “resulted in deoxygenation”. The solubility in water result in data set [3] is listed as “well soluble in water”. Also, in data set [4], the “cytoprotective effects against I/R injury” value is reported as “substantial cytoprotective effects”. Further, the “time to saturation of Mb with CO liberated from the compound” value in data set [5] is not above 30 min. Moreover, in data set [6], the “cytotoxicity towards NRCs” value is “no cytotoxicity”.

Regarding `Cn1ccnc1.Cn1ccnc1.[Br][Re][Br].[C-]#[O+].[C-]#[O+]` [Compound 3, [ReBr2(CO)2(MeIm)2]], the “stability as solids under aerobic conditions” value (“stability as solids” for short) in data set [7] is recorded as “slowly decomposed over time”.

In the case of `[Br][Re][Br].[C-]#[O+].[C-]#[O+].c1ccc2[nH]cnc2c1.c1ccc2[nH]cnc2c1` [Compound 4, [ReBr2(CO)2(BzIm)2]], the “stability as solids” value in data set [7] was “indefinitely stable”.

On to `Cc1ccncc1.Cc1ccncc1.[Br][Re][Br].[C-]#[O+].[C-]#[O+]` [Compound 5, [ReBr2(CO)2(4-pic)2]], for which the “stability as solids” value in data set [7] is listed as “indefinitely stable”.

As to `[Br][Re]([Br])([n+]1cc[nH]c1)[n+]1cc[nH]c1.[C-]#[O+].[C-]#[O+]` [Compound 6, cis-trans-[Re^II(CO)2Br2(Im)2]], the “cytoprotective effects against I/R injury” value in data set [4] is given as “substantial cytoprotective effects”. Moreover, in data set [6], the “cytotoxicity towards NRCs” value is listed as “no cytotoxicity”.

These data come from patent publication US9512156B2, “Carbon monoxide releasing rhenium compounds for medical use” (UNIVERSITY OF ZURICH, priority 2010, dated 2016).
